{
  "source": "patent US20250381110A1",
  "about": "“SKIN CARE COMPOSITION AND METHOD OF USING THE SAME” (THE PROCTER & GAMBLE COMPANY, priority 2024, published 2025)",
  "key": {"[1]": {"tested_on": "human dermal fibroblasts (HDFs)", "test": "Cell motility assay", "type": "cell-based", "conditions": "HDFs from aged donors; 30 μM, 7 h", "method": "HDFs were seeded in glass bottomed multiwell plates (Greiner, 662892), 24 h prior to imaging. Images were captured using a Zeiss CellDiscoverer 7 with a 5x/0.35NA lens with a 2× optovar using oblique mode brightfield with a Hamamatsu Fusion camera every 300 seconds for 5 h (1 ms exposure time), capturing 2 random fields per well. Cells were maintained at 37° C., 5% CO2 throughout experiments. 6 cells were analysed per field using the Manual Tracking plugin in FIJI/ImageJ, and shown as mean movement per cell recorded."}, "[2]": {"tested_on": "primary human dermal fibroblasts (HDFs)", "test": "Mitophagy assay, mt-mKeima reporter, fluorescence microscopy", "type": "cell-based", "method": "Primary human dermal fibroblasts (HDFs) were cultured in DMEM supplemented with 10 percent FBS, 100 units per milliliter penicillin/streptomycin, and 2 millimolar L-glutamine in a humidified atmosphere containing 5 percent carbon dioxide at 37 degrees Celsius. Stable expression of mt-mKeima was achieved through retroviral transduction (Kelly et al.). Cells stably expressing mt-mKeima were seeded in a 35 mm glass bottom dish (MatTek). The live-cell mt-Keima signal was obtained via widefield microscopy using the DMi8 and 2 filtersets to obtain the acidic (561 nm excitation, “red”) and pH-neutral (480 nm, “green”) mKeima signals. Using FIJI/ImageJ, a macro was applied to the mt-mKeima signal to extract mitolysosomes. In detail, images were masked by applying MaxEntropy threshold to the images obtained with 561 nm excitation to remove low mt-mKeima red signal and background. Then, images were generated by subtracting the signal of green mKeima from that of red mKeima. Resulting images were binarised with the MaxEntropy threshold algorithm to extract mitolysosomes. Mitophagy events were determined as the number of puncta per cell. Cells stably expressing pSu9-Halo-GFP seeded in a 35 glass bottom dish (MatTek) were stained with 1 μM Halo TMR ligand (Promega, G8251) for 48 h. Fluorescence images were obtained using an LSM700 confocal microscope (Zeiss). The number of mitolysosomes (GFP-Halo+puncta) per cell was quantified using proprietary plugin in Fiji/ImageJ. Both mKeima and pSu9-Halo-GFP reporters directly visualize frequency of mitophagy events (e.g., mitochondria delivered by autophagolysosomes to lysosomes for degradation) (Kelly et al.)."}, "p62-dependent mitophagy": {"tested_on": "p62-dependent mitophagy", "test": "Luciferase-p62 clearance assay, stated for HDFs", "type": "cell-based, human", "conditions": "10 μM; HDFs as printed", "method": "FIGS. 15A-15C show hydroxycinnamic acids (HCAs) tested in mitophagy assays in primary HDFs. […] 80,000 mixed aged Fibroblasts expressing the Su9-Halo-GFP reporter were treated for 48 h with the indicated HCAs. A change in the reporter excitation occurs because the GFP tag is quenched in the lysosome environment, indicating mitophagy.\nTo identify p62-dependent materials which increase mitophagy, a Luciferase-p62 Assay was established. This method provides an approach to measure the ability of a material to modulate p62-dependent mitophagy by using an inducible firefly luciferase-p62 (Fluc-p62) reporter cell system. In this assay, p62 levels are driven by doxycycline treatment. After levels increased, expression of Fluc-p62 is turned off by removal of doxycycline, materials are then added and assessed for how they affect clearance of Fluc-p62 protein, which is proportionate to cellular mitophagy rates (Kelly et al.). […]\nTest materials including bioactive materials were screened in mouse embryonic fibroblasts (MEFs, Harada et al.) expressing the TET-inducible p62-fluc construct as previously described (Brown et al.). […] Subsequently, cells were treated with test materials for 48 hours in normal growth medium and analysed using ONE-Glo™+Tox Luciferase Reporter and Cell Viability Assay (Promega) by following the manufacturer's protocol."}, "Ki67": {"tested_on": "Ki67", "test": "Immunostaining for Ki67 (percentage of Ki67-positive cells)", "type": "cell-based, human", "conditions": "HDFs; 30 μM for 5 h prior to IR; 11 days after IR", "method": "(§1) Immunofluorescence analyses were performed as described previously (Carroll et al.). In brief, cells were seeded on coverslips in 24-well plates and fixed in 4% formaldehyde in PBS for 10 min at room temperature followed by permeabilization in 0.5% Triton X-100 (Sigma-Aldrich) in PBS for 4 min at room temperature (Ki67 and p21) or in methanol for 4 min at −20° C. (LC3 and p62). Cells were then blocked for 1 h in 5% normal goat serum (Sigma-Aldrich) in PBS at room temperature and incubated with primary antibodies overnight at 4° C. Cells were washed three times and incubated with the appropriate secondary antibodies for 1 h at room temperature (Thermo Fisher Scientific, A31556 and A21235, 1:1000). Cells were washed, and coverslips were mounted on slides with Prolong Gold antifade mountant with DAPI (Invitrogen). Fluorescence images were obtained as described above. The following primary antibodies were used: rabbit anti-Ki67 (Abcam, ab 15580, 1:250), rabbit anti-p21 (CST, 2947, 1:1000), mouse anti-LC3 (NanoTools, 0260-100, 1:200) and rabbit anti-p62 (MBL, PM045, 1:500)."}, "p21": {"tested_on": "p21", "test": "Immunostaining for p21 (percentage of p21-positive cells)", "type": "cell-based, human", "method": "as §1"}, "[3]": {"conditions": "HDFs from aged donors, 30 μM, 7 h"}},
  "data": [
    {"molecule": "CC(=O)Oc1ccc(N2C(=O)C3C(Cc4ccccc4)NC4(C(=O)Nc5c4ccc(Cl)c5C)C3C2=O)cc1", "note": "(centres unmarked) [STOCKIN-57543]", "values": [
      {"measurement": "cell motility", "setting": "[1]", "value": "improving cell motility"},
      {"measurement": "functional mitophagy (mitophagy events)", "setting": "[2]; [3]", "value": "restoring functional mitophagy"},
      {"measurement": "rescue of suppressed basal mitophagy in the absence of p62", "setting": "[2]; HDFs with p62 knockdown", "value": "unable to rescue the suppression of basal mitophagy"},
      {"measurement": "IR-associated decrease in mitophagy", "setting": "[2]; HDFs, 30 μM for 5 h prior to 20 Gy IR", "value": "preventing IR-associated decrease in mitophagy"},
      {"measurement": "increase p62-dependent mitophagy levels over baseline", "setting": "p62-dependent mitophagy", "value": 33, "unit": "%"},
      {"measurement": "IR-associated decrease in cellular proliferation capacity (Ki67)", "setting": "Ki67", "value": "mitigating IR-associated decrease in cellular proliferation capacity"},
      {"measurement": "p21 expression", "setting": "p21; [3]", "value": "decreasing elevated p21 expression"},
      {"measurement": "IR-associated increased p21 expression", "setting": "p21; HDFs, treatment 5 h prior to IR", "value": "mitigating IR-associated increased p21 expression"}
    ]}
  ]
}
